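Compound exposure: 48 hours, 5 concentrations, 96-well plates. Abbreviation: GI50, concentration required for 50% inhibition of growth. TGI: total growth inhibition.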
Experiments:
Assay in all cases: NCI anticancer screen, dose series, 48 h
786-0 renal = system: 786-0 renal
A498 renal = system: A498 renal
A549 NSCLC = system: A549 NSCLC
ACHN renal = system: ACHN renal
BT-549 breast = system: BT-549 breast
CAKI-1 renal = system: CAKI-1 renal
CCRF-CEM leukemia = system: CCRF-CEM leukemia
COLO 205 colon = system: COLO 205 colon
DU-145 prostate = system: DU-145 prostate
EKVX NSCLC = system: EKVX NSCLC
HCC-2998 colon = system: HCC-2998 colon
HCT-116 colon = system: HCT-116 colon
HCT-15 colon = system: HCT-15 colon
HL-60(TB) leukemia = system: HL-60(TB) leukemia
HOP-62 NSCLC = system: HOP-62 NSCLC
HOP-92 NSCLC = system: HOP-92 NSCLC
HS 578T breast = system: HS 578T breast
HT29 colon = system: HT29 colon
IGROV1 ovarian = system: IGROV1 ovarian
K-562 leukemia = system: K-562 leukemia
KM12 colon = system: KM12 colon
LOX IMVI melanoma = system: LOX IMVI melanoma
M14 melanoma = system: M14 melanoma
MALME-3M melanoma = system: MALME-3M melanoma
MCF7 breast = system: MCF7 breast
MDA-MB-231 breast = system: MDA-MB-231 breast
MDA-MB-435 = system: MDA-MB-435
MOLT-4 leukemia = system: MOLT-4 leukemia
NCI-H226 lung = system: NCI-H226 lung
NCI-H23 lung = system: NCI-H23 lung
NCI-H460 lung = system: NCI-H460 lung
NCI-H522 lung = system: NCI-H522 lung
NCI/ADR-RES ovarian = system: NCI/ADR-RES ovarian
OVCAR-3 ovarian = system: OVCAR-3 ovarian
OVCAR-4 ovarian = system: OVCAR-4 ovarian
OVCAR-5 ovarian = system: OVCAR-5 ovarian
OVCAR-8 ovarian = system: OVCAR-8 ovarian
PC-3 prostate = system: PC-3 prostate
RPMI-8226 leukemia = system: RPMI-8226 leukemia
RXF 393 renal = system: RXF 393 renal
SF-268 CNS = system: SF-268 CNS
SF-295 CNS = system: SF-295 CNS
SF-539 CNS = system: SF-539 CNS
SK-MEL-2 melanoma = system: SK-MEL-2 melanoma
SK-MEL-28 melanoma = system: SK-MEL-28 melanoma
SK-MEL-5 melanoma = system: SK-MEL-5 melanoma
SK-OV-3 ovarian = system: SK-OV-3 ovarian
SN12C renal = system: SN12C renal
SNB-19 CNS = system: SNB-19 CNS
SNB-75 CNS = system: SNB-75 CNS
SR leukemia = system: SR leukemia
SW-620 colon = system: SW-620 colon
T-47D breast = system: T-47D breast
TK-10 renal = system: TK-10 renal
U251 CNS = system: U251 CNS
UACC-257 melanoma = system: UACC-257 melanoma
UACC-62 melanoma = system: UACC-62 melanoma
UO-31 renal = system: UO-31 renal

Q: Which results are given for `COc1cccc(-n2cnc3c(N/N=C/c4ccncc4)ncnc32)c1`?
A: GI50 (786-0 renal): 19.5 µM; TGI (786-0 renal): > 25 µM; GI50 (A498 renal): 7.1 µM; TGI (A498 renal): > 23.2 µM; GI50 (A549 NSCLC): 17.6 µM; TGI (A549 NSCLC): > 25 µM; GI50 (ACHN renal): 9.06 µM; TGI (ACHN renal): > 25 µM; GI50 (BT-549 breast): > 23.8 µM; TGI (BT-549 breast): > 25 µM; GI50 (CAKI-1 renal): 7.34 µM; TGI (CAKI-1 renal): > 25 µM; GI50 (CCRF-CEM leukemia): > 25 µM; TGI (CCRF-CEM leukemia): > 25 µM; GI50 (COLO 205 colon): 11.4 µM; TGI (COLO 205 colon): > 25 µM; GI50 (DU-145 prostate): 17.3 µM; TGI (DU-145 prostate): > 25 µM; GI50 (EKVX NSCLC): > 25 µM; TGI (EKVX NSCLC): > 25 µM; GI50 (HCC-2998 colon): > 25 µM; TGI (HCC-2998 colon): > 25 µM; GI50 (HCT-116 colon): 15.1 µM; TGI (HCT-116 colon): > 25 µM; GI50 (HCT-15 colon): 9.83 µM; TGI (HCT-15 colon): > 25 µM; GI50 (HL-60(TB) leukemia): > 25 µM; TGI (HL-60(TB) leukemia): > 25 µM; GI50 (HOP-62 NSCLC): > 25 µM; TGI (HOP-62 NSCLC): > 25 µM; GI50 (HOP-92 NSCLC): > 10.4 µM; TGI (HOP-92 NSCLC): > 25 µM; GI50 (HS 578T breast): 7.47 µM; TGI (HS 578T breast): > 25 µM; GI50 (HT29 colon): 8.07 µM; TGI (HT29 colon): > 25 µM; GI50 (IGROV1 ovarian): 8.65 µM; TGI (IGROV1 ovarian): > 25 µM; GI50 (K-562 leukemia): 10.9 µM; TGI (K-562 leukemia): > 25 µM; GI50 (KM12 colon): 7.84 µM; TGI (KM12 colon): > 25 µM; GI50 (LOX IMVI melanoma): 12.8 µM; TGI (LOX IMVI melanoma): > 25 µM; GI50 (M14 melanoma): 10.3 µM; TGI (M14 melanoma): > 25 µM; GI50 (MALME-3M melanoma): 10.2 µM; TGI (MALME-3M melanoma): > 25 µM; GI50 (MCF7 breast): > 25 µM; TGI (MCF7 breast): > 25 µM; GI50 (MDA-MB-231 breast): > 20.3 µM; TGI (MDA-MB-231 breast): > 25 µM; GI50 (MDA-MB-435): 12.4 µM; TGI (MDA-MB-435): > 25 µM; GI50 (MOLT-4 leukemia): > 25 µM; TGI (MOLT-4 leukemia): > 25 µM; GI50 (NCI-H226 lung): > 23.9 µM; TGI (NCI-H226 lung): > 25 µM; GI50 (NCI-H23 lung): > 25 µM; TGI (NCI-H23 lung): > 25 µM; GI50 (NCI-H460 lung): 13.6 µM; TGI (NCI-H460 lung): > 25 µM; GI50 (NCI-H522 lung): > 14.6 µM; TGI (NCI-H522 lung): > 25 µM; GI50 (NCI/ADR-RES ovarian): > 25 µM; TGI (NCI/ADR-RES ovarian): > 25 µM; GI50 (OVCAR-3 ovarian): > 20.8 µM; TGI (OVCAR-3 ovarian): > 25 µM; GI50 (OVCAR-4 ovarian): 11.6 µM; TGI (OVCAR-4 ovarian): > 25 µM; GI50 (OVCAR-5 ovarian): > 25 µM; TGI (OVCAR-5 ovarian): > 25 µM; GI50 (OVCAR-8 ovarian): > 20.6 µM; TGI (OVCAR-8 ovarian): > 25 µM; GI50 (PC-3 prostate): > 25 µM; TGI (PC-3 prostate): > 25 µM; GI50 (RPMI-8226 leukemia): > 25 µM; TGI (RPMI-8226 leukemia): > 25 µM; GI50 (RXF 393 renal): 6.42 µM; TGI (RXF 393 renal): > 25 µM; GI50 (SF-268 CNS): 24.5 µM; TGI (SF-268 CNS): > 25 µM; GI50 (SF-295 CNS): > 25 µM; TGI (SF-295 CNS): > 25 µM; GI50 (SF-539 CNS): > 18.9 µM; TGI (SF-539 CNS): > 25 µM; GI50 (SK-MEL-2 melanoma): 11.6 µM; TGI (SK-MEL-2 melanoma): > 25 µM; GI50 (SK-MEL-28 melanoma): 13 µM; TGI (SK-MEL-28 melanoma): > 25 µM; GI50 (SK-MEL-5 melanoma): 10.5 µM; TGI (SK-MEL-5 melanoma): > 25 µM; GI50 (SK-OV-3 ovarian): 7.88 µM; TGI (SK-OV-3 ovarian): > 23.7 µM; GI50 (SN12C renal): 13.2 µM; TGI (SN12C renal): > 25 µM; GI50 (SNB-19 CNS): > 25 µM; TGI (SNB-19 CNS): > 25 µM; GI50 (SNB-75 CNS): 7.45 µM; TGI (SNB-75 CNS): > 25 µM; GI50 (SR leukemia): 12.3 µM; TGI (SR leukemia): > 25 µM; GI50 (SW-620 colon): > 25 µM; TGI (SW-620 colon): > 25 µM; GI50 (T-47D breast): 11.2 µM; TGI (T-47D breast): > 25 µM; GI50 (TK-10 renal): 9.59 µM; TGI (TK-10 renal): > 25 µM; GI50 (U251 CNS): > 25 µM; TGI (U251 CNS): > 25 µM; GI50 (UACC-257 melanoma): > 19.7 µM; TGI (UACC-257 melanoma): > 25 µM; GI50 (UACC-62 melanoma): 8.2 µM; TGI (UACC-62 melanoma): > 25 µM; GI50 (UO-31 renal): 8.26 µM; TGI (UO-31 renal): > 25 µM

From PubChem BioAssay (NCI)
